Laboratory results taken from patent US10414811B2, “Protease-resistant lipidated GLP-1 analogs” (MEDIMMUNE LIMITED, priority 2015, dated 2019).
Where two headings read alike, the source gives them in different places. Numbered stars: 1 amine (or outer) side, 2 acyl side, 3 side chain; on linkers, the order of the positions; unused ones are H or OH. Square brackets hold non-standard residues; d marks the D form. Side chains are listed from the residue outwards. Peptide text beside a SMILES is read from it. * marks the point of attachment. γGlu = O=C(O)[C@H](CCC(=O)[*:2])N[*:1]; Palmitoyl = CCCCCCCCCCCCCCCC(=O)*; αMeF = C[C@](N)(Cc1ccccc1)C(=O)O; αMeK = C[C@](N)(CCCCN)C(=O)O; αMeS = C[C@](N)(CO)C(=O)O; Aib = CC(C)(N)C(=O)O

Key:
Format in all cases: cell-based
[1] = target: T1, human glucagon receptor (GCGR) (Homo sapiens, UniProt P47871); test: cAMP assay, human GCGR cells; details: cAMP assay
T1 construct: expressed in transfected cells
T1 sequence (P47871 26-477): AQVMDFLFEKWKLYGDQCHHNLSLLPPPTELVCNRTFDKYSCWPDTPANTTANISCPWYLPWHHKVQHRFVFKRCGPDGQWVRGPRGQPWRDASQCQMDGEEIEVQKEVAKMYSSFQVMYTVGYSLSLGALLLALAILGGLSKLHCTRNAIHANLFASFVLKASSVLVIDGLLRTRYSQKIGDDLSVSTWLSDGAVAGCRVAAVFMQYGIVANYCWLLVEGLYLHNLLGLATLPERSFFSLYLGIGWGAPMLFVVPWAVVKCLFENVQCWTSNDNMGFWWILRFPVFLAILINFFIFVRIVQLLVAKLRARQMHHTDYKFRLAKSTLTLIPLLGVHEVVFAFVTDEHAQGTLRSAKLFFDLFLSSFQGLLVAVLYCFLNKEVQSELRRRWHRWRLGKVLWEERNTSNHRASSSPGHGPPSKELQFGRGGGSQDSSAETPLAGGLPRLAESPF
Procedure, shortened: (§1)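 Peptide-stimulated cAMP measured by two-step HTRF after a 30 min room-temperature incubation with receptor-expressing cells (hGLP-1R, hGIPR at 1×10^5 cells/ml; hGCGR at 2×10^5 cells/ml). Duplicate dilutions; EC50 from 4-parameter logistic fit of % Delta F.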

[2] = target: T2, human GLP-1 receptor (GLP-1R) (Homo sapiens, UniProt P43220); test: cAMP assay, human GLP-1R cells
T2 construct: expressed in transfected cells
T2 sequence (P43220 24-463): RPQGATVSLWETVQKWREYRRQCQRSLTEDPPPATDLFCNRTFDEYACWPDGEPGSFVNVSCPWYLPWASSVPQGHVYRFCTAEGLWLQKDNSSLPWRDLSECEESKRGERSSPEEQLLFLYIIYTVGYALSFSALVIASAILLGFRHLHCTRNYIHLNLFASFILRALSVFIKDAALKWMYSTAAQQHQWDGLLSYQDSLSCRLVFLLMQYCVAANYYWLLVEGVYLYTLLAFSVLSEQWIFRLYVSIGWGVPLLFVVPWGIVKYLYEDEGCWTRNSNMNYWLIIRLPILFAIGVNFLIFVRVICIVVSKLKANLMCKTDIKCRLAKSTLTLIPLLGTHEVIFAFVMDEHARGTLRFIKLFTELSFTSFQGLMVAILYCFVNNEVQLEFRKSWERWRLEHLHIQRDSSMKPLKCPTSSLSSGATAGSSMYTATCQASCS
Procedure, shortened: as §1

[3] = target: T3, human glucose-dependent insulinotropic peptide receptor (GIPR) (Homo sapiens, UniProt P48546); test: cAMP assay, human GIPR cells; details: cAMP assay
T3 construct: expressed in transfected cells
T3 sequence (P48546 22-466): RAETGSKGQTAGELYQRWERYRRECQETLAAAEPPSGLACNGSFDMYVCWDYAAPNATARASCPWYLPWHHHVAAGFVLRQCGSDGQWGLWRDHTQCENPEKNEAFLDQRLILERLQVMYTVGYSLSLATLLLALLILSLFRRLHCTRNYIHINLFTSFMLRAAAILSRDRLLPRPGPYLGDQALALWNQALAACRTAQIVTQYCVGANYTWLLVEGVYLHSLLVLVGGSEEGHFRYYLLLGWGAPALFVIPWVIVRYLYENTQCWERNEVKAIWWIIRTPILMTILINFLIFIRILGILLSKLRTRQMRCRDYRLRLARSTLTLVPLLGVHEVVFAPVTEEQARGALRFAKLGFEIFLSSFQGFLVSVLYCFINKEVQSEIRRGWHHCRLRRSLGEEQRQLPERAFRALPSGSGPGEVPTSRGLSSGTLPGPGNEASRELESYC
Procedure, shortened: as §1

[4] = cAMP assay, first determination (n1), read-out: Primary assay EC50 GLP-1R n1
[5] = cAMP assay, second determination (n2), read-out: Primary assay EC50 GLP-1R n2
[6] = mean of n1 and n2, read-out: Mean pM GLP-1R
[7] = first determination (n1), read-out: Primary assay EC50 Gluc-R (n1)
[8] = second determination (n2), read-out: Primary assay EC50 Gluc-R (n2)
[9] = first determination (n1), read-out: Primary assay EC50 GIP-R (n1)
[10] = second determination (n2), read-out: Primary assay EC50 GIP-R (n2)

Row | Compound | EC50 ([1]; Primary assay EC50 Gluc-R (n1), first determination (n1)) [nM] | EC50 ([1]; read-out: Primary assay EC50 Gluc-R (n2), second determination (n2)) [nM] | EC50 [2, 4] [pM] | EC50 [2, 5] [pM] | EC50 [2, 6] [pM] | EC50 ([3]; Primary assay EC50 GIP-R (n1), first determination (n1)) [nM] | EC50 ([3]; read-out: Primary assay EC50 GIP-R (n2), second determination (n2)) [nM] | EC50 [1, 7] [nM] | EC50 [1, 8] [nM] | EC50 [3, 9] [nM] | EC50 [3, 10] [nM]
1 | CC[C@H](C)[C@H](NC(=O)[C@](C)(Cc1ccccc1)NC(=O)[C@H](CCC(=O)O)NC(=O)[C@H](CCCCNC(=O)CC[C@H](NC(=O)CC[C@H](NC(=O)CC[C@H](NC(=O)CCCCCCCCCCCOc1ccc(C(=O)O)cc1)C(=O)O)C(=O)O)C(=O)O)NC(=O)[C@H](C)NC(=O)[C@H](C)NC(=O)[C@H](CCC(=O)O)NC(=O)CNC(=O)[C@H](CCC(=O)O)NC(=O)[C@H](CC(C)C)NC(=O)[C@](C)(Cc1ccccc1)NC(=O)[C@H](CO)NC(=O)[C@](C)(CO)NC(=O)[C@@H](NC(=O)[C@H](CC(=O)O)NC(=O)[C@H](CO)NC(=O)[C@@H](NC(=O)[C@](C)(Cc1ccccc1)NC(=O)[C@H](CO)NC(=O)CNC(=O)[C@H](CCC(=O)O)NC(=O)C(C)(C)NC(=O)[C@@H](N)Cc1c[nH]cn1)[C@@H](C)O)C(C)C)C(=O)N[C@@H](C)C(=O)N[C@@](C)(Cc1ccccc1)C(=O)N[C@H](C(=O)N[C@H](C(=O)N[C@@](C)(CCCCN)C(=O)NCC(=O)NCC(N)=O)C(C)C)C(C)C [compound 139] | ≥ 26 | ≥ 26 | 29 | 22 | 25.5 | ≥ 26 | ≥ 26 | – | – | – | –
2 | CCCCCCCCCCCC(=O)N[C@@H](CCC(=O)NCCCC[C@H](NC(=O)[C@H](C)NC(=O)[C@H](C)NC(=O)[C@H](CCC(=O)O)NC(=O)CNC(=O)[C@H](CCC(=O)O)NC(=O)[C@H](CC(C)C)NC(=O)[C@](C)(Cc1ccccc1)NC(=O)[C@H](CO)NC(=O)[C@](C)(CO)NC(=O)[C@@H](NC(=O)[C@H](CC(=O)O)NC(=O)[C@H](CO)NC(=O)[C@@H](NC(=O)[C@](C)(Cc1ccccc1)NC(=O)[C@H](CO)NC(=O)CNC(=O)[C@H](CCC(=O)O)NC(=O)C(C)(C)NC(=O)[C@@H](N)Cc1c[nH]cn1)[C@@H](C)O)C(C)C)C(=O)N[C@@H](CCC(=O)O)C(=O)N[C@@](C)(Cc1ccccc1)C(=O)N[C@H](C(=O)N[C@@H](C)C(=O)N[C@@](C)(Cc1ccccc1)C(=O)N[C@H](C(=O)N[C@H](C(=O)N[C@@](C)(CCCCN)C(=O)NCC(=O)NCC(N)=O)C(C)C)C(C)C)[C@@H](C)CC)C(=O)O [compound 128] | – | – | 15 | 21 | 18.2 | – | – | ≥ 28 | ≥ 28 | ≥ 28 | ≥ 28
3 | CCCCCCCCCCCC(=O)NCCCCCC(=O)NCCCC[C@H](NC(=O)[C@@H](NC(=O)[C@@H](NC(=O)[C@](C)(Cc1ccccc1)NC(=O)[C@H](C)NC(=O)[C@@H](NC(=O)[C@](C)(Cc1ccccc1)NC(=O)[C@H](CCC(=O)O)NC(=O)[C@](C)(CCCCN)NC(=O)[C@H](C)NC(=O)[C@H](C)NC(=O)[C@H](CCC(=O)O)NC(=O)CNC(=O)[C@H](CCC(=O)O)NC(=O)[C@H](CC(C)C)NC(=O)[C@](C)(Cc1ccccc1)NC(=O)[C@H](CO)NC(=O)[C@](C)(CO)NC(=O)[C@@H](NC(=O)[C@H](CC(=O)O)NC(=O)[C@H](CO)NC(=O)[C@@H](NC(=O)[C@](C)(Cc1ccccc1)NC(=O)[C@H](CO)NC(=O)CNC(=O)[C@H](CCC(=O)O)NC(=O)C(C)(C)NC(=O)[C@@H](N)Cc1c[nH]cn1)[C@@H](C)O)C(C)C)[C@@H](C)CC)C(C)C)C(C)C)C(=O)NCC(=O)NCC(N)=O [compound 167] | – | – | 13 | 6.9 | 10 | – | – | ≥ 29 | ≥ 29 | ≥ 29 | ≥ 29
4 | CCCCCCCCCCCCCCCCCC(=O)NCCCCCC(=O)NCCCCCC(=O)NCCCC[C@H](NC(=O)[C@H](C)NC(=O)[C@H](C)NC(=O)[C@H](CCC(=O)O)NC(=O)CNC(=O)[C@H](CCC(=O)O)NC(=O)[C@H](CC(C)C)NC(=O)[C@](C)(Cc1ccccc1)NC(=O)[C@H](CO)NC(=O)[C@](C)(CO)NC(=O)[C@@H](NC(=O)[C@H](CC(=O)O)NC(=O)[C@H](CO)NC(=O)[C@@H](NC(=O)[C@](C)(Cc1ccccc1)NC(=O)[C@H](CO)NC(=O)CNC(=O)[C@H](CCC(=O)O)NC(=O)C(C)(C)NC(=O)[C@@H](N)Cc1c[nH]cn1)[C@@H](C)O)C(C)C)C(=O)N[C@@H](CCC(=O)O)C(=O)N[C@@](C)(Cc1ccccc1)C(=O)N[C@H](C(=O)N[C@@H](C)C(=O)N[C@@](C)(Cc1ccccc1)C(=O)N[C@H](C(=O)N[C@H](C(=O)N[C@@](C)(CCCCN)C(=O)NCC(=O)NCC(N)=O)C(C)C)C(C)C)[C@@H](C)CC [compound 150] | – | – | 28 | 22 | 25.4 | – | – | ≥ 27 | ≥ 27 | ≥ 27 | ≥ 27
5 | CCCCCCCCCCCCCCCC(=O)N[C@@H](CCC(=O)NCCCC[C@H](NC(=O)[C@H](C)NC(=O)[C@H](C)NC(=O)[C@H](CCC(=O)O)NC(=O)CNC(=O)[C@H](CCC(=O)O)NC(=O)[C@H](CC(C)C)NC(=O)[C@](C)(Cc1ccccc1)NC(=O)[C@H](CO)NC(=O)[C@](C)(CO)NC(=O)[C@@H](NC(=O)[C@H](CC(=O)O)NC(=O)[C@H](CO)NC(=O)[C@@H](NC(=O)[C@](C)(Cc1ccccc1)NC(=O)[C@H](CO)NC(=O)CNC(=O)[C@H](CCC(=O)O)NC(=O)C(C)(C)NC(=O)[C@@H](N)Cc1c[nH]cn1)[C@@H](C)O)C(C)C)C(=O)N[C@@H](CCC(=O)O)C(=O)N[C@@](C)(Cc1ccccc1)C(=O)N[C@H](C(=O)N[C@@H](C)C(=O)N[C@@](C)(Cc1ccccc1)C(=O)N[C@H](C(=O)N[C@H](C(=O)N[C@@](C)(CCCCN)C(=O)NCC(=O)NCC(N)=O)C(C)C)C(C)C)[C@@H](C)CC)C(=O)O [compound 34] | – | – | 39 | 48 | 43 | – | – | ≥ 93 | ≥ 93 | ≥ 93 | ≥ 93
6 | CCCCCCCCCCCCCCCC(=O)N[C@@H](CCC(=O)NCCCC[C@H](NC(=O)[C@@H](NC(=O)[C@](C)(Cc1ccccc1)NC(=O)[C@H](C)NC(=O)[C@@H](NC(=O)[C@](C)(Cc1ccccc1)NC(=O)[C@H](CCC(=O)O)NC(=O)[C@](C)(CCCCN)NC(=O)[C@H](C)NC(=O)[C@H](C)NC(=O)[C@H](CCC(=O)O)NC(=O)CNC(=O)[C@H](CCC(=O)O)NC(=O)[C@H](CC(C)C)NC(=O)[C@](C)(Cc1ccccc1)NC(=O)[C@H](CO)NC(=O)[C@](C)(CO)NC(=O)[C@@H](NC(=O)[C@H](CC(=O)O)NC(=O)[C@H](CO)NC(=O)[C@@H](NC(=O)[C@](C)(Cc1ccccc1)NC(=O)[C@H](CO)NC(=O)CNC(=O)[C@H](CCC(=O)O)NC(=O)C(C)(C)NC(=O)[C@@H](N)Cc1c[nH]cn1)[C@@H](C)O)C(C)C)[C@@H](C)CC)C(C)C)C(=O)N[C@@](C)(CCCCN)C(=O)NCC(=O)NCC(N)=O)C(=O)O [compound 73] (H-H[Aib]EGS[αMeF]TSDV[αMeS]S[αMeF]LEGEAA[αMeK]E[αMeF]IA[αMeF]VK([γGlu-Palmitoyl])[αMeK]GG-NH2) | – | – | 130 | 160 | 146 | – | – | ≥ 28 | ≥ 28 | ≥ 28 | ≥ 28
7 | CC[C@H](C)[C@H](NC(=O)[C@H](Cc1ccccc1)NC(=O)[C@H](CCC(=O)O)NC(=O)[C@H](CCCCN)NC(=O)[C@H](C)NC(=O)[C@H](C)NC(=O)[C@H](CCC(N)=O)NC(=O)CNC(=O)[C@H](CCC(=O)O)NC(=O)[C@H](CC(C)C)NC(=O)[C@H](Cc1ccc(O)cc1)NC(=O)[C@H](CO)NC(=O)[C@H](CO)NC(=O)[C@@H](NC(=O)[C@H](CC(=O)O)NC(=O)C(C)(C)NC(=O)[C@@H](NC(=O)[C@H](Cc1ccccc1)NC(=O)[C@@H](NC(=O)CNC(=O)[C@H](CCC(=O)O)NC(=O)C(C)(C)NC(=O)[C@@H](N)Cc1c[nH]cn1)[C@@H](C)O)[C@@H](C)O)C(C)C)C(=O)N[C@@H](C)C(=O)N[C@@H](Cc1c[nH]c2ccccc12)C(=O)N[C@@H](CC(C)C)C(=O)N[C@H](C(=O)N[C@@H](CCCCN)C(=O)NCC(=O)N[C@@H](CCCNC(=N)N)C(N)=O)C(C)C [compound 20] (H-H[Aib]EGTFT[Aib]DVSSYLEGQAAKEFIAWLVKGR-NH2) | – | – | 15000 | 12000 | 13500 | – | – | ≥ 290 | ≥ 290 | ≥ 290 | ≥ 290
